Reference: the NIST ThermoML archive (doi:10.1016/j.jct.2016.08.034)
± gives the expanded uncertainty stated by the source.

Details: Crystal; DTA

C=CC(=O)N1CCC[C@@H](n2nc(-c3ccc(Oc4ccccc4)cc3)c3c(N)ncnc32)C1 [Ibrutinib] gave a Normal melting temperature of 153.13 ± 1.1 °C.
